{"source": "paper PMC6222706", "about": "“Evaluation of the Antioxidant and Neuroprotectant Activities of New Asymmetrical 1,3-Diketones” (Molecules : A Journal of Synthetic Chemistry and Natural …, 2018)", "key": {"[1]": {"assay": "FRAP (Ferric Reducing Antioxidant Power) assay", "format": "biochemical", "conditions": "for FRAP-TEAC100: Trolox Equivalent Antioxidant Capacity vs 100 µM solution of the substance, from FRAP assay; for FRAP Assay (%) at 100 µM / FRAP Assay (%) at 200 µM: 30 min, 593 nm", "protocol": "The assay was carried out according to the method of Benzie et al. with slight modifications, in a 96-well microplate. FRAP reagent was prepared by mixing 10 mL of 300 mM acetate buffer with 1 mL of 10 mM 2,4,6-tripyridyl-S-triazine (TPTZ) in HCl 40 mM and 1mL of FeCl3·6H2O 20 mM. Firstly, 190 µL of the FRAP reagent were added to all wells of the 96-well plate, followed by the addition to the well of 10 µL of the test compounds dissolved in Ethanol to reach the final concentrations assayed (0, 5, 10, 20, 50, 100, 150, 200 µM). After 30 min incubation in the dark, the absorbance was read at 593 nm. Trolox was used as assay control. Three different assays were carried out by quadruplicate for each compound."}, "[2]": {"assay": "Kinetic solubility by UV spectrometry in 10 mM PBS", "format": "physicochemical", "conditions": "10 mM phosphate buffered saline, aqueous buffer, kinetic from dmso stock", "protocol": "Among the most important physicochemical parameters in drug-discovery, solubility and chemical stability in aqueous media are the determinants for non-toxic and brain-permeable drug-like compounds with good bioavailability. So, compounds with good aqueous solubility are the best candidates for drug-discovery progression. […] The assays were performed at room temperature, in 10 mM Phosphate Buffered Saline (PBS) from compound stocks in DMSO at 20 mM concentration.\nA modified protocol was used from that described by Hoelke et al. for the determination of the kinetic solubility from DMSO compound solutions. A compound calibration curve (compound concentration vs. UV absorption) was prepared on a 48 well plate for each compound with concentrations in the range of 10 µM to […]. Each compound dilution was carried out by pipetting defined volumes of a 20 mM stock compound solution in DMSO into the wells and adding PBS 10 mM to reach a final volume of 500 µL/well. The final amount of DMSO per well was 2%. For the lower compound concentrations, an additional volume of DMSO was added into each well to reach the 2% of DMSO. Then, 200 µL of each dilution was transferred to a new 96 well plate for the measurement of the UV-spectra. One well in each row was left without compound as a blank and its UV absorbance was used as an offset correction. The experiments were carried out by duplicate.\nIn parallel compound saturation solutions were obtained and filtered from 20 mM compound stock in DMSO. So, 10 µL of 20 mM stock solution were dispensed to 190 µL of PBS 10 mM. The solutions were mixed, shaken in a microplate shaker for two hours, and then 160 µL of each solution were filtered and transferred to a new well plate for UV absorption measure. The compound stability in PBS 10 mM was determined at 24, 48 and 72 h with solutions prepared as those for the compound calibration curve.\nMeasurement of the UV-spectra was performed using a Varioskan microplate reader and spectra were taken in the range of 270–600 nm. Spectral bandwidth was set to 5 nm and the data pint interval was 10 nm. […]"}, "SH-SY5Y cells [3]": {"tested_on": "SH-SY5Y cells", "assay": "SH-SY5Y neuroprotection assay against H2O2 (MTT)", "format": "cell-based, human", "conditions": "compound 5-50 µM for 24 h, then 200 µM H2O2 for 24 h", "protocol": "For neuroprotection experiments, SH-SY5Y cells were treated with test compound at different concentrations (5, 10, 20, 30, 40, and 50 µM) for 24 h. After the incubation period, cells were exposed to H2O2 200 µM for 24 h. At the end of the treatment, cell viability was measure with MTT.\nCompound neuroprotection under H2O2-induced oxidative stress was assessed by MTT assay. Briefly, SH-SY5Y were seeded into 96-well plates at a density of 3 × 10^3 cells/well and grown in the incubator for 24 h. Cells were pretreated for 24 h with different compound concentrations (5, 10, 20, 30, 40, 50 µM). After the treatment period, cells were exposed to 200 µM H2O2 for 24 h. Cell viability was measured with MTT following the same procedure described above. Cell viability was expressed as the percentage of the control value (cells without treatment with H2O2)."}, "SH-SY5Y cells [4]": {"tested_on": "SH-SY5Y cells", "assay": "Mitochondrial membrane potential (JC-1, microplate reader) in SH-SY5Y cells under H2O2", "format": "cell-based, human", "conditions": "SH-SY5Y, compound at different concentrations for 24 h, then 200 µM H2O2 for 24 h, JC-1", "protocol": "To know whether β-diketones 6b and 7b will protect the mitochondrial membrane from depolarization under oxidative stress conditions, MMP experiments were carried out with the cationic dye JC-1 (5,5′,6,6′-tetrachloro-1,1′,3,3′-tetraethylbenzimi-dazolylcarbocyanine iodide). JC-1 enters selectively into mitochondria and reversibly change color from red to green as the membrane potential decrease. In healthy cells, JC-1 forms red fluorescent J-aggregates while in apoptotic cells with low MMP, JC-1 remains as monomers with green fluorescence. The ratio of J-aggregates to J-monomers is an indication of healthy non-apoptotic cells.\nThe fluorescent dye 5,5′,6,6′-tetrachloro-1,1′,3,3′-tetraethylbenzimidazolylcarbocyanine iodide (JC-1) was used for measuring MMP [111]. A decrease in fluorescence intensity represents mitochondrial membrane depolarization. For fluorescence ratio detection under oxidative stress conditions, 96 well plates were seeded with 3 × 10^3 SH-SY5Y cells and after 24 h incubation they were treated with test compound and left out for 24 h. Then, cells were exposed to different H2O2 concentrations for 24 h. After the incubation period, cells were washed twice with Hanks buffer and then stained with 5 µM JC-1 in culture media in dark, in a CO2 incubator at 37 °C for 20 min. At the end of the dye incubation period, cells were washed three times with Hanks buffer and 200 µL of fresh buffer was added. Cells were analyzed with a Varioskan microplate reader. J-aggregates red fluorescence intensity was measured at 535 nm excitation and 595 nm emission wavelength, while excitation at 485 nm and emission 535 nm wavelength was used for J-monomers green fluorescence. Results were expressed as the ratio of fluorescence intensity of J-aggregates to J-monomers. […] JC-1 aggregates show red fluorescence (peak emission at 590 nm) measured in the FL2 channel. Thus, healthy non-apoptotic cells are detected in both FL1 and FL2 channels, while cells with disrupted mitochondrial function show fluorescence in FL1 channel but reduced FL2 intensity."}}, "data": [{"compound": "O=C(/C=C(O)/C=C/c1cc(F)c(O)cc1F)C(F)(F)F", "note": "[Compound 6b, (3Z,5E)-6-(2,5-difluoro-4-hydroxyphenyl)-1,1,1-trifluoro-4-hydroxyhexa-3,5-dien-2-one]", "values": [{"measurement": "FRAP-TEAC100", "setting": "[1]", "result": 0.15}, {"measurement": "FRAP Assay (%) at 100 µM", "setting": "[1]", "result": 6.7, "unit": "%"}, {"measurement": "FRAP Assay (%) at 200 µM", "setting": "[1]", "result": 11.3, "unit": "%"}, {"measurement": "solubility at 2 h", "setting": "[2]", "result": "281 ± 9", "unit": "µg/mL"}, {"measurement": "Cell viability after H2O2 (neuroprotection)", "setting": "SH-SY5Y cells [3]", "result": "significantly improved"}, {"measurement": "MMP recovery", "setting": "SH-SY5Y cells [4]", "result": "18–25%"}]}, {"compound": "O=C(/C=C(O)/C=C/c1ccc(O)c(F)c1F)C(F)(F)F", "note": "[Compound 7b, (3Z,5E)-6-(2,3-Difluoro-4-hydroxyphenyl)-1,1,1-trifluoro-4-hydroxyhexa-3,5-dien-2-one]", "values": [{"measurement": "FRAP-TEAC100", "setting": "[1]", "result": 0.16}, {"measurement": "FRAP Assay (%) at 100 µM", "setting": "[1]", "result": 8.8, "unit": "%"}, {"measurement": "FRAP Assay (%) at 200 µM", "setting": "[1]", "result": 15.3, "unit": "%"}, {"measurement": "solubility at 2 h", "setting": "[2]", "result": "298 ± 7", "unit": "µg/mL"}, {"measurement": "Cell viability after H2O2 (neuroprotection)", "setting": "SH-SY5Y cells [3]", "result": "significantly improved"}, {"measurement": "MMP recovery", "setting": "SH-SY5Y cells [4]", "result": "18–25%"}]}]}
